We go through 16 molecules from PubChem BioAssay (NCI).

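Briefly, cells in 96-well plates were exposed to five compound concentrations for 48 h, and endpoints were estimated by linear interpolation. The concentration for 50% growth inhibition is given as GI50. TGI: concentration producing complete growth inhibition.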

Common to all, as to assay: inhibition of tumour cell growth, NCI panel, 48 h
Assay [1] concerns SW-620 colon.
The test system of assay [2] is OVCAR-4 ovarian.
In assay [3] the test system is CAKI-1 renal.
In assay [4] the test system is M19-MEL melanoma.
The subject of assay [5] is OVCAR-5 ovarian.
Assay [6] has as its system NCI-H23 lung.
For assay [7], the system named is OVCAR-8 ovarian.
Assay [8] has as its system DLD-1 colon.
Assay [9] has as its system TK-10 renal.
In assay [10] the test system is XF 498 CNS.
Assay [11] concerns LOX IMVI melanoma.
Assay [12] has as its system BT-549 breast.

Consider `C/C(=N\NC(=O)c1ccccc1O)c1cccc(/C(C)=N/NC(=O)c2ccccc2O)n1.O=S(=O)([O-])[O-].[Fe+2]`, for which the TGI in assay [1], in [2], in [3], in [4], in assay [5] and in [6] was more than 100 µM in each case. The TGI in [7], in [8], in [9] and in assay [10] was more than 100 µM throughout. The GI50 in assay [2], in [3], in [4], in assay [5], in assay [6] and in assay [8] was more than 100 µM throughout.
Take `COc1nc(N)c(NC(C)=O)c(=O)n1C`: the TGI in [1], in [2], in [3], in assay [5], in assay [6] and in assay [7] was more than 100 µM in each case. Besides, the TGI in assay [8], in assay [11], in assay [9] and in assay [10] was more than 100 µM in each case.
With `COc1cc(C2(c3ncc[nH]3)SSSCC2O)ccc1O` (stereo unspecified), the TGI in assay [1] was more than 100 µM; in assay [2], more than 63.7 µM; in assay [3], more than 100 µM; in assay [4], more than 39.6 µM; in assay [5] it was more than 100 µM; in assay [6], more than 100 µM. Moreover, the TGI was more than 100 µM in assay [7], more than 100 µM in assay [8], more than 54.5 µM in assay [11] and more than 100 µM in assay [10].
For `CC1C2C=C(O)C(=O)C(C2=O)C1c1ccccc1` (stereo unspecified), the TGI in assay [1], in assay [2], in assay [3], in [4], in [5] and in [6] was more than 100 µM each time. Moreover, the TGI in [7], in assay [8], in assay [11] and in assay [9] was more than 100 µM throughout.
As for `CCCCCCCCCOCC(COP(=O)([O-])OCC[N+](C)(C)C)OC` (stereo unspecified), the TGI in assay [1], in assay [2], in assay [3], in assay [4], in assay [5] and in assay [6] was more than 100 µM throughout. The TGI in assay [7], in assay [8], in assay [11] and in assay [10] was more than 100 µM throughout.
In the case of `CC1CCC2CC(=O)OC([C@@H]3C(=O)O[C@@H](C4=CCCC4)C4C(C)CCC43)C12` (stereo partly specified), the TGI in assay [1], in assay [3], in assay [4], in assay [6], in [7] and in assay [8] was more than 100 µM throughout. The TGI in assay [11], in [9] and in [10] was more than 100 µM each time.
`COc1cc(OC)cc(-c2cc(=O)c3cc4c(cc3[nH]2)OCO4)c1`: the TGI in assay [1] is more than 100 µM; in [2], more than 96.1 µM; in [3], more than 100 µM; in assay [4], more than 100 µM; in [5], more than 63.1 µM; in assay [6], 9.09 µM. The TGI in assay [7] was 9.55 µM; in assay [8], 36.4 µM; in [11], more than 51.1 µM; in assay [9], 55 µM; in assay [10] it was 2.58 µM.
Turning to `COC1CC(OC2C(C)OC(OC3C(C)OC(OC4C(C)OC(O[C@H]5CC[C@@]6(C)C(=CC[C@]7(O)[C@@H]6C[C@@H](OC(C)=O)[C@@]6(C)[C@]7(O)CC[C@@]6(O)C(C)=O)C5)CC4OC)CC3OC)CC2OC)OC(C)C1O` (stereo partly specified), the TGI in [1], in assay [2], in assay [3], in [5], in [6] and in assay [7] was more than 25 µM throughout. The TGI in assay [12], in assay [11] and in assay [9] was more than 25 µM throughout.
Take `Cc1c(N=C/C=C/c2ccccc2)c(=O)n(-c2ccccc2)n1C`: the TGI in assay [1] was 58.4 µM; in assay [2], 40.9 µM; in [3], more than 100 µM; in assay [5] it was more than 100 µM; in assay [6], 69.8 µM; in assay [7], 54.4 µM. Also, the TGI in assay [12] was 58.1 µM; in assay [11] it was 25 µM; in [9] it was more than 100 µM.
With `CCOC(=O)c1nc2cc(C(F)(F)F)ccc2nc1Nc1ccc(C(=O)OC)s1`, the TGI in [1], in [2], in assay [3], in assay [5], in assay [6] and in assay [7] was more than 100 µM each time. Moreover, the TGI in assay [12] was 74.6 µM; in assay [11] it was more than 100 µM; in [9], more than 100 µM.
`COC(=O)c1cc(NC(=O)Cc2c[nH]c3ccccc23)cn1C`: the TGI in assay [1], in assay [2], in assay [3], in [5], in [6] and in assay [7] was more than 100 µM each time. Further, the TGI in assay [12], in assay [11] and in assay [9] was more than 100 µM each time.
Take `CCOC(=O)c1nc2ccc(C(F)(F)F)cc2nc1NCc1ccc(OC)c(OC)c1`: the TGI in assay [1], in assay [2], in assay [3], in assay [5], in [6] and in [7] was more than 100 µM each time. In addition, the TGI in [12], in assay [11] and in assay [9] was more than 100 µM throughout.
Take `CSCSCC(CO)NC(=O)/C(C)=C\c1c(C)[nH]c(=O)[nH]c1=O` (stereo unspecified): the TGI in assay [1], in assay [2], in assay [3], in assay [4], in [5] and in assay [6] was more than 250 µM each time. Besides, the TGI in assay [7] is more than 250 µM; in assay [8], more than 250 µM; in assay [11], more than 250 µM; in [10], more than 224 µM.
Take `CCCCCc1c(CCCC)c(=O)[nH]c2nc(NC(=O)CCCC)ccc12`: the TGI in [1], in [2], in assay [3], in [5], in assay [6] and in assay [7] was more than 100 µM throughout. In addition, the TGI in assay [12], in [11] and in [9] was more than 100 µM each time.
In the case of `O=C(c1ccc(Cl)cc1)c1ccc(OCCCOc2ccc(C(=O)c3ccc(Cl)cc3)cc2Cl)c(Cl)c1`, the TGI in assay [1], in assay [2], in [3], in assay [4], in assay [5] and in [6] was more than 100 µM each time. Besides, the TGI in assay [7], in [8], in assay [11], in assay [9] and in assay [10] was more than 100 µM throughout.
Turning to `CC(C)C1NC(=O)CC(c2ccccc2)N(N=O)C1c1ccccc1` (stereo unspecified), the TGI in assay [1], in assay [2], in [3], in [4], in assay [5] and in assay [6] was more than 100 µM each time. Further, the TGI in assay [7], in assay [8], in assay [11] and in assay [10] was more than 100 µM in each case.
